Laboratory results as given in patent publication US4272437A, “Antibacterial agents, and 4-thio azetidinone intermediates” (priority 1979, dated 1981).
Converted amounts (≈) assume the structure as drawn. Structures can show the parent of a compound that is named as a salt. Where two headings read alike, the source gives them in different places.

What was measured:
Str. pneumoniae A-9585 = assay: MIC, tube dilution, Streptococcus pneumoniae A9585; format: cell-based; details: Streptococcus pneumoniae, A9585, Str. pneumoniae A9585; overnight 37° C., Nutrient Broth; read-out: Minimum Inhibitory Concentration (M.I.C.)
Description: (§1) Representative compounds of the present invention were subjected to in vitro antibiotic screening against a variety of microorganisms.

Str. pyogenes A-9604 = assay: MIC, tube dilution, Streptococcus pyogenes A9604; format: cell-based; details: Streptococcus pyogenes, A9604, Str. pyogenes A9604; overnight 37° C., Nutrient Broth; read-out: Minimum Inhibitory Concentration (M.I.C.)
Description: as §1

Staph. aureus A-9537 = assay: MIC, tube dilution, Staphylococcus aureus A9537; format: cell-based; details: Staphylococcus aureus, A9537, Staph. aureus A9537; overnight 37° C., Nutrient Broth; read-out: Minimum Inhibitory Concentration (M.I.C.)
Description: as §1

[1] = system: Staph. aureus A-9537 and 50% serum; assay: MIC, tube dilution, Staph. aureus A9537 + 50% serum; format: cell-based, Staphylococcus aureus; details: Staphylococcus aureus, overnight 37° C., read-out: Minimum Inhibitory Concentration (M.I.C.)
Description: as §1

[2] = system: Staph. aureus (Pen-Res) A-9606; assay: MIC, tube dilution, Staphylococcus aureus A9606 (Pen-Res); format: cell-based; details: Staphylococcus aureus, overnight 37° C.
Description: as §1

[3] = system: Staph. aureus (Meth-Res) A-15097; assay: MIC, tube dilution, Staphylococcus aureus A15097 (Meth-Res); format: cell-based; details: Staphylococcus aureus, overnight 37° C.
Description: as §1

Str. faecalis A-20688 = assay: MIC, tube dilution, Streptococcus faecalis A20688; format: cell-based; details: Enterococcus faecalis, A20688, Str. faecalis A20688; overnight 37° C.; read-out: Minimum Inhibitory Concentration (M.I.C.)
Description: as §1

E. coli A-15119 = assay: MIC, tube dilution, Escherichia coli A15119; format: cell-based; details: Escherichia coli, A15119, E. coli A15119; overnight 37° C.; read-out: Minimum Inhibitory Concentration (M.I.C.)
Description: as §1

E. coli A-20341-1 = assay: MIC, tube dilution, Escherichia coli A20341-1; format: cell-based
Description: as §1

K. pneumoniae A-15130 = assay: MIC, tube dilution, Klebsiella pneumoniae A15130; format: cell-based; details: Klebsiella pneumoniae, A15130, K. pneumoniae A15130; overnight 37° C.; read-out: Minimum Inhibitory Concentration (M.I.C.)
Description: as §1

[4] = system: Klebsiella species A20468; assay: MIC, tube dilution, Klebsiella species A20468; format: cell-based; details: Klebsiella species (K. pneumoniae) A20468; overnight 37° C.; read-out: Minimum Inhibitory Concentration (M.I.C.)
Description: as §1

Pr. mirabilis A-9900 = assay: MIC, tube dilution, Proteus mirabilis A9900; format: cell-based; details: Proteus mirabilis, A9900, Proteus mirabilis A9900; overnight 37° C.; read-out: Minimum Inhibitory Concentration (M.I.C.)
Description: as §1

Pr. morganii A-15153 = assay: MIC, tube dilution, Proteus morganii A15153; format: cell-based; details: Morganella morganii, A15153, Proteus morganii A15153; overnight 37° C.; read-out: Minimum Inhibitory Concentration (M.I.C.)
Description: as §1

Ser. marcescens A-20019 = assay: MIC, tube dilution, Serratia marcescens A20019; format: cell-based; details: Serratia marcescens, A20019, Serratia marcescens A20019; overnight 37° C.; read-out: Minimum Inhibitory Concentration (M.I.C.)
Description: as §1

Ent. cloacae A-9659 = assay: MIC, tube dilution, Enterobacter cloacae A9659; format: cell-based; details: Enterobacter cloacae, A9659, Enterobacter cloacae A9659; overnight 37° C.; read-out: Minimum Inhibitory Concentration (M.I.C.)
Description: as §1

Ent. cloacae A-9656 = assay: MIC, tube dilution, Enterobacter cloacae A9656; format: cell-based; details: overnight 37° C., read-out: Minimum Inhibitory Concentration (M.I.C.)
Description: as §1

Ps. aeruginosa A-9843A = assay: MIC, tube dilution, Pseudomonas aeruginosa A9843A; format: cell-based; details: Pseudomonas aeruginosa, A9843A, read-out: Minimum Inhibitory Concentration (M.I.C.), Pseudomonas aeruginosa A9843A; overnight 37° C.
Description: as §1

Ps. aeruginosa A-21213 = assay: MIC, tube dilution, Pseudomonas aeruginosa A21213; format: cell-based; details: overnight 37° C., read-out: Minimum Inhibitory Concentration (M.I.C.)
Description: as §1

Proteus rettgeri A21203 = assay: MIC, tube dilution, Proteus rettgeri A21203; format: cell-based; details: Providencia rettgeri, overnight 37° C., read-out: Minimum Inhibitory Concentration (M.I.C.)
Description: as §1

Proteus vulgaris A21559 = assay: MIC, tube dilution, Proteus vulgaris A21559; format: cell-based; details: Proteus vulgaris
Description: as §1

[5] = Staph. aureus A9606 (Pen-Res), read-out: Minimum Inhibitory Concentration (M.I.C.)
[6] = Staph. aureus A15097 (Meth-Res), read-out: Minimum Inhibitory Concentration (M.I.C.)
[7] = Escherichia coli, A203411, E. coli A20341-1; overnight 37° C.; read-out: Minimum Inhibitory Concentration (M.I.C.)
[8] = Enterobacter cloacae, A9656, Enterobacter cloacae A9656
[9] = Pseudomonas aeruginosa, A21213, Pseudomonas aeruginosa A21213
[10] = A21203, Proteus rettgeri A21203
[11] = A21559, Proteus vulgaris A21559, overnight 37° C., read-out: Minimum Inhibitory Concentration (M.I.C.)

SMILES	MIC (Str. pneumoniae A-9585) [µg/mL]	MIC (Str. pyogenes A-9604) [µg/mL]	MIC (Staph. aureus A-9537) [µg/mL]	MIC [1] [µg/mL]	MIC [2, 5] [µg/mL]	MIC [3, 6] [µg/mL]	MIC (Str. faecalis A-20688) [µg/mL]	MIC (E. coli A-15119) [µg/mL]	MIC (E. coli A-20341-1; [7]) [µg/mL]	MIC (K. pneumoniae A-15130) [µg/mL]	MIC [4] [µg/mL]	MIC (Pr. mirabilis A-9900) [µg/mL]	MIC (Pr. morganii A-15153) [µg/mL]	MIC (Ser. marcescens A-20019) [µg/mL]	MIC (Ent. cloacae A-9659) [µg/mL]	MIC (Ent. cloacae A-9656; [8]) [µg/mL]	MIC (Ps. aeruginosa A-9843A) [µg/mL]	MIC (Ps. aeruginosa A-21213; [9]) [µg/mL]	MIC (Proteus rettgeri A21203; [10]) [µg/mL]	MIC (Proteus vulgaris A21559; [11]) [µg/mL]	other results
CC1=C(C(=O)O)N2C(=O)[C@H]([C@@H](C)N)[C@H]2S1 (relative stereo) [Example 70, (1'R,5R,6S and 1'S,5S,6R) 6-1'Amino-1'-ethyl)-2-methylpenem-3-carboxylic Acid]	> 63	> 63	> 63	> 32	> 63	> 63	> 63	> 63	> 63	> 63	> 63	> 63	> 63	> 63	> 63	> 63	> 63	> 63	> 63	> 63	–
CC[C@H](O)[C@H]1C(=O)N2C(C(=O)O)=C(C)S[C@H]12 (relative stereo) [Example 93, (1'S,5R,6S, and 1'R,5S,6R) 6-(1'--Hydroxy-1'-propyl)-2-methylpenem-3-carboxylic acid, sodium salt (isomer C)]	> 125	> 125	> 125	> 63	–	–	> 125	> 125	–	> 125	> 125	> 125	> 125	> 125	> 125	–	> 125	–	–	–	MIC ([2]; read-out: Minimum Inhibitory Concentration (M.I.C.), Staph. aureus A9606 (Pen-Res)): > 125 µg/mL; MIC ([3]; read-out: Minimum Inhibitory Concentration (M.I.C.), Staph. aureus A15097 (Meth-Res)): > 125 µg/mL; MIC (E. coli A-20341-1; Escherichia coli, A203411; E. coli A20341-1; overnight 37° C.; read-out: Minimum Inhibitory Concentration (M.I.C.)): > 125 µg/mL; MIC (Ent. cloacae A-9656; Enterobacter cloacae A9656): > 125 µg/mL; MIC (Ps. aeruginosa A-21213; Pseudomonas aeruginosa A21213): > 125 µg/mL; MIC (Proteus rettgeri A21203; Proteus rettgeri A21203): > 125 µg/mL; MIC (Proteus vulgaris A21559; A21559, read-out: Minimum Inhibitory Concentration (M.I.C.)): > 125 µg/mL
N=C(NCC1=C(C(=O)O)N2C(=O)CC2S1)c1ccccc1 (stereo not drawn) [Example 108, 2-Phenylimidoylaminomethylpenem-3-carboxylic Acid]	0.25 (≈ 0.824 µM)	0.25 (≈ 0.824 µM)	0.25 (≈ 0.824 µM)	16	16 (≈ 52.7 µM)	> 125	125 (≈ 412 µM)	63 (≈ 208 µM)	> 125	125 (≈ 412 µM)	> 125	63 (≈ 208 µM)	63 (≈ 208 µM)	125 (≈ 412 µM)	125 (≈ 412 µM)	125 (≈ 412 µM)	63 (≈ 208 µM)	125 (≈ 412 µM)	63 (≈ 208 µM)	125 (≈ 412 µM)	–
